# Target: SMARCA2 (Homo sapiens (Human), UniProt P51531)
# Test: SMARCA2 HiBiT degradation assay in HEK293T cells
# Type: cell-based
# Details: 293T HiBiT assay, 24 h; for DC50: read-out: DC50 (SM2-293T) SMARCA2 degradation potency; for Dmax: HEK-293T, read-out: Dmax % (SM2-293T) maximum SMARCA2 degradation within the concentrations tested
# Experimental: HiBiT peptide knock-in of SMARCA2 in LgBiT expressing HEK293T cells was performed by CRISPR-mediated tagging system as described Promega. The homozygous HiBiT knock-in on c-terminus SMARCA2 was confirmed by sanger sequence. SMARCA2-HiBiT knock-in Hela monoclonal cell (CS302366) and SMARCA4-HiBiT knock-in Hela monoclonal cell (CS3023226) were purchased from Promega. The heterozygous HiBiT-knock-in was confirmed by sanger sequence in both SMARCA2-HiBiT and SMARCA4-HiBiT monoclonal cells. Compounds were prepared in a low dead volume plate at 3-fold serial dilution, and then transferred 25 nL/well into a 384 well plate (Corning: #356661) by Agilent Bravo liquid dispenser. SMARCA2-HiBiT monoclonal HEK293T cells were added at 5,000/well/25 uL into the compound containing 384 well plate. After 24 h incubation, 25 uL/well of Nano-Glo HiBiT Lytic detection buffer (Promega: N3050) was added to the wells and incubate for 10 min on a shaker, centrifuged for 5 min, and then RLU was detected on a microplate reader (Envision, PerkinElmer). The RLU ratio values are normalized to percent inhibition as follows: % inhibition=((HC−LC)−(compound−LC))/(HC−LC))*100, where HC=high control=mean signal of DMSO only; LC=low control=mean signal of 100% inhibition of RLU by 1 μM PRT1001728. An 11-point dose response curve for each compound will be generated using normalized % inhibition to determine IC50 values based on the equation: Y=Bottom+((Top-Bottom)/(1+((IC50/X)^Slope))), where Y is the % inhibition in the presence of X inhibitor concentration; Top=the top plateau of the curve; Bottom=the bottom plateau of the curve; Slope=Hill coefficient; DC50=concentration of compound with 50% degradation in relation to top/high control. DC50 values were determined by using XLfit Model 205.
# Chain of SMARCA2 (P51531 whole entry): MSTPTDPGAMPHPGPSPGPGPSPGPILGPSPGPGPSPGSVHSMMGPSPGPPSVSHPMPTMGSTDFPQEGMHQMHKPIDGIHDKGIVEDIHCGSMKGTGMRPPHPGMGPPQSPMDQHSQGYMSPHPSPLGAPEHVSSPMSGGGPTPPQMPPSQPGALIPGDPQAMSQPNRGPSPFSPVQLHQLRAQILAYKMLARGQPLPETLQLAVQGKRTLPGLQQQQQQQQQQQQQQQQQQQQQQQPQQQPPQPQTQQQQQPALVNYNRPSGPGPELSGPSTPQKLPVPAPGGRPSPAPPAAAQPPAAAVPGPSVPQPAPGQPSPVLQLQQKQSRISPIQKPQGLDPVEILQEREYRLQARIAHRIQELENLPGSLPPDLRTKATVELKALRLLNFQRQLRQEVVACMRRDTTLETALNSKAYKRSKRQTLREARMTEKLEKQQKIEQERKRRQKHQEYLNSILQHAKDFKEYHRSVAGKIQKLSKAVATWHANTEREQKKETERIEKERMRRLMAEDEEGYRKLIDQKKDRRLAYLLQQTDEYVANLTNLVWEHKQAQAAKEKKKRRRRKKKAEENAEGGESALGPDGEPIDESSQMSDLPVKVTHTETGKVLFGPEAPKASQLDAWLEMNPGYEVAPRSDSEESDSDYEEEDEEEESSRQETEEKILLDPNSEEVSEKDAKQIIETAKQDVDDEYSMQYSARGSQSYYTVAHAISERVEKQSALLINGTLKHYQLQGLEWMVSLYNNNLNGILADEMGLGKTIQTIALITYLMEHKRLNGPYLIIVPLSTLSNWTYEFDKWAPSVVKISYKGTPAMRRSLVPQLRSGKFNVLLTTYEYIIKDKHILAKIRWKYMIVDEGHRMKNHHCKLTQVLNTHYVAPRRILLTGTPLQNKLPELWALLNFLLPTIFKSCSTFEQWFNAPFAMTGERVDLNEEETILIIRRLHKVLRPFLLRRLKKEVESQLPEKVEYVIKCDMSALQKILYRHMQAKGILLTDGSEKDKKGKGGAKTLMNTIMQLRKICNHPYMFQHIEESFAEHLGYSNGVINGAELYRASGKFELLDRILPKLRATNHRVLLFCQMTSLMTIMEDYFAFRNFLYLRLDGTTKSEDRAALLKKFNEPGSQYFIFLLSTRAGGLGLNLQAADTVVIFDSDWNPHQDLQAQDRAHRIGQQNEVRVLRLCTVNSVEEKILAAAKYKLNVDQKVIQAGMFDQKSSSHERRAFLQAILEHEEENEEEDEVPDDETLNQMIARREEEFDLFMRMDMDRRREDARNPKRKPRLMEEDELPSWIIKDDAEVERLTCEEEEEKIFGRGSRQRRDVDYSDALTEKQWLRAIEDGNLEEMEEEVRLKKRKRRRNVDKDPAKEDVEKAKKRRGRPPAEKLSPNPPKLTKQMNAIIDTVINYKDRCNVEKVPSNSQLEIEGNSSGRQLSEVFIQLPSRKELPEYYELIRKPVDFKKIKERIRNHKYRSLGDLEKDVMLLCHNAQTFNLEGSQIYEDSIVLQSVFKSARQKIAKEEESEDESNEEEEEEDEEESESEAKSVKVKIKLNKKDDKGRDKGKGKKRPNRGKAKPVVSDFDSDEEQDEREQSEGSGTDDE
Compound,DC50,Dmax
"Cc1ncsc1-c1ccc([C@H](C)NC(=O)[C@@H]2C[C@@H](O)CN2C(=O)[C@@H](c2cc(CCCN3CCN4c5cc(-c6ccccc6O)nnc5NCC4C3)no2)C(C)C)cc1 (stereo partly drawn) [Example 74, (2S,4R)-4-hydroxy-1-((2R)-2-(3-(3-(2-(2-hydroxyphenyl)-5,6,6a,7,9,10-hexahydro-8H-pyrazino[1′,2′:4,5]pyrazino[2,3-c]pyridazin-8-yl)propyl)isoxazol-5-yl)-3-methylbutanoyl)-N-((S)-1-(4-(4-methylthiazol-5-yl)phenyl)ethyl)pyrrolidine-2-carboxamide]",< 100 nM,> 75%
"Cc1ncsc1-c1ccc([C@H](C)NC(=O)[C@@H]2C[C@@H](O)CN2C(=O)[C@@H](c2cc(OCCN3CCC(N4CCN5c6cc(-c7ccccc7O)nnc6NC[C@H]5C4)C3)no2)C(C)C)cc1 (single isomer, unassigned) [Example 19]",< 100 nM,> 75%
"Cc1ncsc1-c1ccc([C@H](C)NC(=O)[C@@H]2C[C@@H](O)CN2C(=O)[C@@H](c2cc(OCCN3CCC(N4CCN5c6cc(-c7ccccc7O)nnc6NC[C@H]5C4)C3)no2)C(C)C)cc1 (single isomer, unassigned) [Example 18]",< 100 nM,

# Continued, values first:
DC50,Dmax,Compound
< 100 nM,> 75%,"Cc1ncsc1-c1ccc([C@H](C)NC(=O)[C@@H]2C[C@@H](OC(=O)C(C)C)CN2C(=O)[C@@H](c2cc(OCCN3CCC(N4CCN5c6cc(-c7ccccc7O)nnc6NC[C@H]5C4)CC3)no2)C(C)C)cc1 [Example 81, (3R,5S)-1-((R)-2-(3-(2-(4-((S)-2-(2-hydroxyphenyl)-5,6,6a,7,9,10-hexahydro-8H-pyrazino[1′,2′:4,5]pyrazino[2,3-c]pyridazin-8-yl)piperidin-1-yl)ethoxy)isoxazol-5-yl)-3-methylbutanoyl)-5-(((S)-1-(4-(4-methylthiazol-5-yl)phenyl)ethyl)carbamoyl)pyrrolidin-3-yl isobutyrate]"
< 100 nM,> 75%,"COc1cc(-c2scnc2C)ccc1[C@H](C)NC(=O)[C@@H]1C[C@@H](O)CN1C(=O)[C@@H](c1cc(OCCN2CCC(CN3CCN4c5cc(-c6ccccc6O)nnc5NC[C@H]4C3)CC2)no1)C(C)C [Example 40, (2S,4R)-4-hydroxy-1-((R)-2-(3-(2-(4-(((S)-2-(2-hydroxyphenyl)-5,6,6a,7,9,10-hexahydro-8H-pyrazino[1′,2′:4,5]pyrazino[2,3-c]pyridazin-8-yl)methyl)piperidin-1-yl)ethoxy)isoxazol-5-yl)-3-methylbutanoyl)-N-((S)-1-(2-methoxy-4-(4-methylthiazol-5-yl)phenyl)ethyl)pyrrolidine-2-carboxamide]"
< 100 nM,> 75%,"Cc1ncsc1-c1ccc([C@H](C)NC(=O)[C@@H]2C[C@@H](O)CN2C(=O)[C@@H](c2cc(CCN3CCC(N4CCN5c6cc(-c7ccccc7O)nnc6NC[C@H]5C4)CC3)no2)C(C)C)cc1 [Example 91, (2S,4R)-4-hydroxy-1-((R)-2-(3-(2-(4-((S)-2-(2-hydroxyphenyl)-5,6,6a,7,9,10-hexahydro-8H-pyrazino[1′,2′:4,5]pyrazino[2,3-c]pyridazin-8-yl)piperidin-1-yl)ethyl)isoxazol-5-yl)-3-methylbutanoyl)-N-((S)-1-(4-(4-methylthiazol-5-yl)phenyl)ethyl)pyrrolidine-2-carboxamide]"
< 100 nM,> 75%,"Cc1ncsc1-c1ccc([C@H](C)NC(=O)[C@@H]2C[C@@H](O)CN2C(=O)[C@@H](c2cc(OCCN3CCC(N4CCC(N5CCN6c7cc(-c8ccccc8O)nnc7NC[C@H]6C5)CC4)CC3)no2)C(C)C)cc1 [Example 44, (2S,4R)-4-hydroxy-1-((R)-2-(3-(2-(4-((S)-2-(2-hydroxyphenyl)-5,6,6a,7,9,10-hexahydro-8H-pyrazino[1′,2′:4,5]pyrazino[2,3-c]pyridazin-8-yl)-[1,4′-bipiperidin]-1-yl)ethoxy)isoxazol-5-yl)-3-methylbutanoyl)-N-((S)-1-(4-(4-methylthiazol-5-yl)phenyl)ethyl)pyrrolidine-2-carboxamide]"

# Source: patent US20240018158A1, “BRM TARGETING COMPOUNDS AND ASSOCIATED METHODS OF USE” (Prelude Therapeutics Incorporated, priority 2020, published 2024)
